Test results taken from publication PMC10888562 (International Journal of Molecular Sciences, 2024).

Test system: histone deacetylase (HDAC)
Test: Fluorometric HDAC activity assay on extracts of treated HT29 cells
Assay type: cell-based, human
Details: HT29 colon cells treated 72 h at GI50 concentration; lower RFU = decline in HDAC activity; HT29 extract control 5154 ± 40
Protocol: All values are expressed as RFU.
To study the HDAC activity in HT29 treated cells, a Fluorometric HDAC Activity Assay Kit ab156064 (Abcam, Cambridge, MA, USA) was used and all sample preparations were made based on the manufacturer’s protocol. A total of 10^6 cells/mL of HT29 cells were seeded in DMEM with serum deprivation for 18 h to synchronise the cells. […] Cells were then washed with cold PBS and resuspended in lysis buffer (10 mM Tris HCl (pH 7.5), 10 mM NaCl, 15 mM MgCl2, 250 mM sucrose, 0.5% NP-40 and 0.1 mM EGTA) and lysed on ice for 20 min. Cells were centrifuged through 4 mL of sucrose cushion (30% sucrose, 10mM Tris HCl (pH 7.5), 10 mM NaCl and 3mM MgCl2) at 1300× g for 10 min at 4 °C. Supernatant was discarded and the pellet was washed and resuspended in extraction buffer (50 mM HEPES-KOH (pH 7.5), 420 mM NaCl, 0.5 mM EDTA 2Na, 0.1 mM EGTA and 10% glycerol) and then sonicated for 30 s. Nuclei were lysed for 30 min on ice and centrifuged at 20,000× g for 30 min. The supernatant was collected, and the samples were prepared for the fluorometric assay according to the manufacturer’s protocol (Histone Deacetylase (HDAC) Activity Assay Fluorometric Kit ab156064, Abcam). The changes in the relative fluorescence intensity (expressed as RFU) were recorded each minute over 60 min using the Glo-Max®-Multimode microplate reader (Promega Corporation, Alexandra, VIC, Australia) at an excitation/emission of 355/460 nm.

Structure (SMILES) | HDAC Inhibition at 72 h
CC(/C=C/C(=O)NO)=C\[C@@H](C)C(=O)c1ccc(N(C)C)cc1 [Trichostatin A (TSA), Trichostatin A] | 749 ± 8 RFU

Same assay, conditions: HT29 colon cells treated 72 h at GI50 concentration; lower RFU = decline in HDAC activity; HT29 extract control 5154 ± 40; listed as TSA

Structure (SMILES) | HDAC Inhibition at 72 h
CC(/C=C/C(=O)NO)=C\[C@@H](C)C(=O)c1ccc(N(C)C)cc1 [Trichostatin A (TSA), Trichostatin A] | 749 RFU

Test system: HT29 colon
Test: not given
Set-up: method as in PMID 36142383, PMID 37173934, PMID 36296713
Details: cited from earlier work

Structure (SMILES) | GI50
N.N.O=C([O-])C1(C(=O)[O-])CCC1.[Pt+2] [Carboplatin, cis-diammine(1,1-cyclobutanecarboxylato)platinum(II)] | > 50 µM
O=C1[O][Pt]2([NH][C@@H]3CCCC[C@H]3[NH]2)[O]C1=O (relative stereo) [Oxaliplatin, trans-L(1R,2R-diaminocyclohexane) oxalatoplatinum(II)] | 0.9 ± 0.2 µM

Test system: U87 glioblastoma
Test: not given
Set-up: method as in PMID 36142383, PMID 37173934, PMID 36296713
Details: cited from earlier work

Structure (SMILES) | GI50
N.N.O=C([O-])C1(C(=O)[O-])CCC1.[Pt+2] [Carboplatin, cis-diammine(1,1-cyclobutanecarboxylato)platinum(II)] | > 50 µM
O=C1[O][Pt]2([NH][C@@H]3CCCC[C@H]3[NH]2)[O]C1=O (relative stereo) [Oxaliplatin, trans-L(1R,2R-diaminocyclohexane) oxalatoplatinum(II)] | 1.8 ± 0.2 µM

Test system: H460 lung
Test: not given
Set-up: method as in PMID 36142383, PMID 37173934, PMID 36296713
Details: cited from earlier work

Structure (SMILES) | GI50
N.N.O=C([O-])C1(C(=O)[O-])CCC1.[Pt+2] [Carboplatin, cis-diammine(1,1-cyclobutanecarboxylato)platinum(II)] | 14 µM
O=C1[O][Pt]2([NH][C@@H]3CCCC[C@H]3[NH]2)[O]C1=O (relative stereo) [Oxaliplatin, trans-L(1R,2R-diaminocyclohexane) oxalatoplatinum(II)] | 1.6 ± 0.1 µM

Test system: A431 skin
Test: not given
Set-up: method as in PMID 36142383, PMID 37173934, PMID 36296713
Details: cited from earlier work

Structure (SMILES) | GI50
N.N.O=C([O-])C1(C(=O)[O-])CCC1.[Pt+2] [Carboplatin, cis-diammine(1,1-cyclobutanecarboxylato)platinum(II)] | 24 µM
O=C1[O][Pt]2([NH][C@@H]3CCCC[C@H]3[NH]2)[O]C1=O (relative stereo) [Oxaliplatin, trans-L(1R,2R-diaminocyclohexane) oxalatoplatinum(II)] | 4.1 ± 0.5 µM

Test system: Du145 prostate
Test: not given
Set-up: method as in PMID 36142383, PMID 37173934, PMID 36296713
Details: cited from earlier work

Structure (SMILES) | GI50
N.N.O=C([O-])C1(C(=O)[O-])CCC1.[Pt+2] [Carboplatin, cis-diammine(1,1-cyclobutanecarboxylato)platinum(II)] | 15 µM
O=C1[O][Pt]2([NH][C@@H]3CCCC[C@H]3[NH]2)[O]C1=O (relative stereo) [Oxaliplatin, trans-L(1R,2R-diaminocyclohexane) oxalatoplatinum(II)] | 2.9 ± 0.4 µM

Test system: BE2-C neuroblastoma
Test: not given
Set-up: method as in PMID 36142383, PMID 37173934, PMID 36296713
Details: cited from earlier work

Structure (SMILES) | GI50
N.N.O=C([O-])C1(C(=O)[O-])CCC1.[Pt+2] [Carboplatin, cis-diammine(1,1-cyclobutanecarboxylato)platinum(II)] | 19 µM
O=C1[O][Pt]2([NH][C@@H]3CCCC[C@H]3[NH]2)[O]C1=O (relative stereo) [Oxaliplatin, trans-L(1R,2R-diaminocyclohexane) oxalatoplatinum(II)] | 0.9 ± 0.2 µM

Test system: SJ-G2 glioblastoma
Test: not given
Set-up: method as in PMID 36142383, PMID 37173934, PMID 36296713
Details: cited from earlier work

Structure (SMILES) | GI50
N.N.O=C([O-])C1(C(=O)[O-])CCC1.[Pt+2] [Carboplatin, cis-diammine(1,1-cyclobutanecarboxylato)platinum(II)] | 5.7 ± 0.2 µM
O=C1[O][Pt]2([NH][C@@H]3CCCC[C@H]3[NH]2)[O]C1=O (relative stereo) [Oxaliplatin, trans-L(1R,2R-diaminocyclohexane) oxalatoplatinum(II)] | 3 ± 1.2 µM

Test system: MIA pancreas
Test: not given
Set-up: method as in PMID 36142383, PMID 37173934, PMID 36296713
Details: cited from earlier work

Structure (SMILES) | GI50
N.N.O=C([O-])C1(C(=O)[O-])CCC1.[Pt+2] [Carboplatin, cis-diammine(1,1-cyclobutanecarboxylato)platinum(II)] | > 50 µM
O=C1[O][Pt]2([NH][C@@H]3CCCC[C@H]3[NH]2)[O]C1=O (relative stereo) [Oxaliplatin, trans-L(1R,2R-diaminocyclohexane) oxalatoplatinum(II)] | 0.9 ± 0.2 µM

Test system: A2780 ovarian
Test: not given
Set-up: method as in PMID 36142383, PMID 37173934, PMID 36296713
Details: cited from earlier work

Structure (SMILES) | GI50
N.N.O=C([O-])C1(C(=O)[O-])CCC1.[Pt+2] [Carboplatin, cis-diammine(1,1-cyclobutanecarboxylato)platinum(II)] | 9.2 ± 2.9 µM
O=C1[O][Pt]2([NH][C@@H]3CCCC[C@H]3[NH]2)[O]C1=O (relative stereo) [Oxaliplatin, trans-L(1R,2R-diaminocyclohexane) oxalatoplatinum(II)] | 0.16 ± 0.1 µM

Test system: cisplatin-resistant ADDP ovarian variant
Test: not given
Set-up: method as in PMID 36142383, PMID 37173934, PMID 36296713
Details: cited from earlier work

Structure (SMILES) | GI50
N.N.O=C([O-])C1(C(=O)[O-])CCC1.[Pt+2] [Carboplatin, cis-diammine(1,1-cyclobutanecarboxylato)platinum(II)] | > 50 µM
O=C1[O][Pt]2([NH][C@@H]3CCCC[C@H]3[NH]2)[O]C1=O (relative stereo) [Oxaliplatin, trans-L(1R,2R-diaminocyclohexane) oxalatoplatinum(II)] | 0.8 ± 0.1 µM

Test system: MCF-7 breast
Test: not given
Set-up: method as in PMID 36142383, PMID 37173934, PMID 36296713
Details: cited from earlier work

Structure (SMILES) | GI50
N.N.O=C([O-])C1(C(=O)[O-])CCC1.[Pt+2] [Carboplatin, cis-diammine(1,1-cyclobutanecarboxylato)platinum(II)] | > 50 µM
O=C1[O][Pt]2([NH][C@@H]3CCCC[C@H]3[NH]2)[O]C1=O (relative stereo) [Oxaliplatin, trans-L(1R,2R-diaminocyclohexane) oxalatoplatinum(II)] | 0.5 ± 0.1 µM

Test system: non-tumour-derived MCF10A breast line
Test: not given
Set-up: method as in PMID 36142383, PMID 37173934, PMID 36296713
Details: cited from earlier work

Structure (SMILES) | GI50
N.N.O=C([O-])C1(C(=O)[O-])CCC1.[Pt+2] [Carboplatin, cis-diammine(1,1-cyclobutanecarboxylato)platinum(II)] | > 50 µM

Test system: multiple human cell lines
Test: not given
Set-up: method as in PMID 36142383, PMID 37173934, PMID 36296713
Details: average over all cell lines; cited from earlier work

Structure (SMILES) | GI50
N.N.O=C([O-])C1(C(=O)[O-])CCC1.[Pt+2] [Carboplatin, cis-diammine(1,1-cyclobutanecarboxylato)platinum(II)] | 32.2 µM
O=C1[O][Pt]2([NH][C@@H]3CCCC[C@H]3[NH]2)[O]C1=O (relative stereo) [Oxaliplatin, trans-L(1R,2R-diaminocyclohexane) oxalatoplatinum(II)] | 1.46 ± 0.32 µM
